The results in this text go back to patent US11083717B2, “Compositions and methods for drug sensitization of parasites” (The Texas A&M University System, priority 2015, dated 2021).

Series [1] relates to S. cerevisiae. The series is described as follows: in vitro. To be noted: Saccharomyces cerevisiae. An excerpt:
(§1) These tests included an IL-12 mouse model test to determine compound efficacy, verification of MIC50 for CP, cytotoxicity test for fibroblasts and yeast to determine potential toxic effects, a Human ether-a-go-go-related gene (hERG) test to determine potential cardiotoxicity, an AMES test tp determine mutagenic potential, a Safety Screen 44 test to determine common negative off-target drug interastion (Eurofins Cerep, SA, France), a cytochrome P450 (CYP) test to determine potential liver toxicity, a maximum tolerated dose, test, a Pharmacokinetics (PK) test to determine fate of the substance administered to a living organism tests for plasma stability in human and mouse, to measure the degradation of compound in plasma MClint and HClint test to determine in vitro intrinsic clearance for Mouse and Human, and kinetic solubility and plasma protein binding tests in mouse and human.

Series [2] deals with human fibroblast. Kind of series: in vitro.
Excerpt: as §1

Molecules are shown by their SMILES. Like-named read-outs stand apart in the source and are kept apart here. A value given as a limit tells only on which side of the number the result lay.

Consider `CC(C)NC(=O)Cc1ccc(Oc2nc3ccc(F)cc3s2)cc1O` [NZ405, 2-{4-[(6-fluoro-1,3-benzothiazol-2-yl)oxy]-2-hydroxyphenyl}-N-(propan-2-yl)acetamide], for which the “concentrations at which not toxic, S. cerevisiae cytotoxicity testing” value in series [1] was no less than 100 µM. Besides, in series [2], the “concentrations at which not toxic, human fibroblast cytotoxicity testing” value is no less than 100 µM.
`CCOC(=O)[C@@H](C)Oc1ccc(Oc2nc3ccc(F)cc3s2)cc1` [NZ-251, ethyl (2R)-2-{4-[(6-fluoro-1,3-benzothiazol-2-yl)oxy]phenoxy}propanoate]: the “concentrations at which not toxic, S. cerevisiae cytotoxicity testing” value in series [1] was no less than 100 µM. In series [2] (human), the “concentrations at which not toxic, human fibroblast cytotoxicity testing” value was no less than 100 µM.
In the case of `O=C(O)Cc1ccc(Oc2nc3ccc(Cl)cc3s2)cc1` [NZ-287, 2-{4-[(6-chloro-1,3-benzothiazol-2-yl)oxy]phenyl}acetic acid], the “concentrations at which not toxic, S. cerevisiae cytotoxicity testing” value in series [1] was no less than 100 µM. In addition, the “concentrations at which not toxic, human fibroblast cytotoxicity testing” value in series [2] (human) is no less than 100 µM.
Regarding `CON(C)C(=O)COc1ccc(Oc2cnc3cc(Cl)ccc3n2)cc1` [NZ-290, 2-{4-[(6-chloroquinoxalin-2-yl)oxy]phenoxy}-N-methoxy-N-methylacetamide], the “concentrations at which not toxic, S. cerevisiae cytotoxicity testing” value in series [1] is no less than 100 µM. The “concentrations at which not toxic, human fibroblast cytotoxicity testing” value in series [2] is no less than 100 µM.
On to `CONC(=O)Cc1ccc(Oc2nc3ccc(Cl)cc3s2)cc1` [NZ-293, 2-{4-[(6-chloro-1,3-benzothiazol-2-yl)oxy]phenyl}-N-methoxyacetamide], for which the “concentrations at which not toxic, S. cerevisiae cytotoxicity testing” value in series [1] was no less than 100 µM. Besides, in series [2] (human), the “concentrations at which not toxic, human fibroblast cytotoxicity testing” value was no less than 100 µM.
`COC(=O)Cc1ccc(Oc2nc3ccc(F)cc3s2)cc1` [NZ-294, methyl 2-{4-[(6-fluoro-1,3-benzothiazol-2-yl)oxy]phenyl}acetate]: the “concentrations at which not toxic, S. cerevisiae cytotoxicity testing” value in series [1] was no less than 100 µM. In series [2] (human), the “concentrations at which not toxic, human fibroblast cytotoxicity testing” value was no less than 100 µM.
Turning to `O=C(O)Cc1ccc(Oc2cnc3cc(Cl)ccc3n2)cc1` [NZ-298, 2-{4-[(6-chloroquinoxalin-2-yl)oxy]phenyl}acetic acid], in series [1], the “concentrations at which not toxic, S. cerevisiae cytotoxicity testing” value was no less than 100 µM. Moreover, in series [2] (human), the “concentrations at which not toxic, human fibroblast cytotoxicity testing” value was no less than 100 µM.
As to `O=C(O)Cc1ccc(Oc2nc3ccc(F)cc3s2)cc1` [NZ-299, 2-{4-[(6-fluoro-1,3-benzothiazol-2-yl)oxy]phenyl}acetic acid], the “concentrations at which not toxic, S. cerevisiae cytotoxicity testing” value in series [1] was no less than 100 µM. For the same molecule, in series [2], the “concentrations at which not toxic, human fibroblast cytotoxicity testing” value was no less than 100 µM.
Consider `CONC(=O)Cc1ccc(Oc2nc3ccc(F)cc3s2)cc1` [NZ-300, 2-{4-[(6-fluoro-1,3-benzothiazol-2-yl)oxy]phenyl}-N-methoxyacetamide], for which the “concentrations at which not toxic, S. cerevisiae cytotoxicity testing” value in series [1] is no less than 100 µM. The “concentrations at which not toxic, human fibroblast cytotoxicity testing” value in series [2] is no less than 100 µM.
With `CONC(=O)Cc1ccc(Oc2cnc3cc(Cl)ccc3n2)cc1` [NZ-301, 2-{4-[(6-chloroquinoxalin-2-yl)oxy]phenyl}-N-methoxyacetamide], the “concentrations at which not toxic, S. cerevisiae cytotoxicity testing” value in series [1] is no less than 100 µM. Moreover, the “concentrations at which not toxic, human fibroblast cytotoxicity testing” value in series [2] is no less than 100 µM.
Take `COC(=O)COc1ccc(Oc2nc3ccc(F)cc3s2)cc1` [NZ-303, methyl 2-{4-[(6-fluoro-1,3-benzothiazol-2-yl)oxy]phenoxy}acetate]: the “concentrations at which not toxic, human fibroblast cytotoxicity testing” value in series [2] (human) is no less than 100 µM.
As for `O=C(O)COc1ccc(Oc2nc3ccc(F)cc3s2)cc1` [NZ-304, 2-{4-[(6-fluoro-1,3-benzothiazol-2-yl)oxy]phenoxy}acetic acid], the “concentrations at which not toxic, S. cerevisiae cytotoxicity testing” value in series [1] was no less than 100 µM. Further, the “concentrations at which not toxic, human fibroblast cytotoxicity testing” value in series [2] (human) was no less than 100 µM.
As for `CONC(=O)COc1ccc(Oc2nc3ccc(F)cc3s2)cc1` [NZ-305, 2-{4-[(6-fluoro-1,3-benzothiazol-2-yl)oxy]phenoxy}-N-methoxyacetamide], the “concentrations at which not toxic, S. cerevisiae cytotoxicity testing” value in series [1] was no less than 100 µM. For the same molecule, the “concentrations at which not toxic, human fibroblast cytotoxicity testing” value in series [2] (human) is no less than 100 µM.
Turning to `CCNC(=O)COc1ccc(Oc2cnc3cc(Cl)ccc3n2)cc1` [NZ-306, 2-{4-[(6-chloroquinoxalin-2-yl)oxy]phenoxy}-N-ethylacetamide], the “concentrations at which not toxic, S. cerevisiae cytotoxicity testing” value in series [1] was no less than 100 µM. Also, in series [2], the “concentrations at which not toxic, human fibroblast cytotoxicity testing” value was no less than 100 µM.
`CC(C)NC(=O)COc1ccc(Oc2cnc3cc(Cl)ccc3n2)cc1` [NZ-307, 2-{4-[(6-chloroquinoxalin-2-yl)oxy]phenoxy}-N-(propan-2-yl)acetamide]: the “concentrations at which not toxic, S. cerevisiae cytotoxicity testing” value in series [1] was no less than 100 µM. The “concentrations at which not toxic, human fibroblast cytotoxicity testing” value in series [2] was no less than 100 µM.
As for `COC(=O)C(C)c1ccc(Oc2cnc3cc(Cl)ccc3n2)cc1` (centres unmarked) [NZ-308, methyl 2-{4-[(6-chloroquinoxalin-2-yl)oxy]phenyl}propanoate], the “concentrations at which not toxic, S. cerevisiae cytotoxicity testing” value in series [1] is no less than 100 µM. The “concentrations at which not toxic, human fibroblast cytotoxicity testing” value in series [2] (human) was no less than 100 µM.
With `CONC(=O)C(O)c1ccc(Oc2nc3ccc(Cl)cc3s2)cc1` (centres unmarked) [NZ-338, 2-{4-[(6-chloro-1,3-benzothiazol-2-yl)oxy]phenyl}-2-hydroxy-N-methoxyacetamide], the “concentrations at which not toxic, human fibroblast cytotoxicity testing” value in series [2] (human) was no less than 100 µM.
Consider `CN(C)C(=O)Nc1ccc(Oc2cnc3cc(Cl)ccc3n2)cc1` [NZ-343, 1-{4-[(6-chloroquinoxalin-2-yl)oxy]phenyl}-3,3-dimethylurea], for which the “concentrations at which not toxic, human fibroblast cytotoxicity testing” value in series [2] (human) is no less than 100 µM.
Regarding `CC(C)NC(=O)Nc1ccc(Oc2cnc3cc(F)ccc3n2)cc1` [NZ-345, 1-{4-[(6-fluoroquinoxalin-2-yl)oxy]phenyl}-3-(propan-2-yl)urea], the “concentrations at which not toxic, human fibroblast cytotoxicity testing” value in series [2] is no less than 100 µM.
On the same count and under the same terms, the result for `CC(C)NC(=O)Nc1ccc(Oc2ccc3cc(Cl)ccc3n2)cc1` [NZ-346, 1-{4-[(6-chloroquinolin-2-yl)oxy]phenyl}-3-(propan-2-yl)urea] reads no less than 100 µM.
Regarding `NCc1ccc(Oc2nc3ccc(Cl)cc3s2)cc1` [NZ-348, {4-[(6-chloro-1,3-benzothiazol-2-yl)oxy]phenyl}methanamine], in series [1], the “concentrations at which not toxic, S. cerevisiae cytotoxicity testing” value was in the range of 25 to 50 µM.
The same measure, in the same setting: the result for `CN(C)C(=O)NCc1ccc(Oc2nc3ccc(Cl)cc3s2)cc1` [NZ-349, 1-({4-[(6-chloro-1,3-benzothiazol-2-yl)oxy]phenyl}methyl)-3,3-dimethylurea] reads no less than 100 µM.
Turning to `CNC(=O)NCc1ccc(Oc2nc3ccc(Cl)cc3s2)cc1` [NZ-350, 1-({4-[(6-chloro-1,3-benzothiazol-2-yl)oxy]phenyl}methyl)-3-methylurea], the “concentrations at which not toxic, S. cerevisiae cytotoxicity testing” value in series [1] is no less than 100 µM.
Same read-out and setting: the result for `CC(C)(C)OC(=O)Nc1ccc(Oc2nc3ccc(Cl)cc3s2)cc1` [NZ-351, tert-butyl N-{4-[(6-chloro-1,3-benzothiazol-2-yl)oxy]phenyl}carbamate] reads no less than 100 µM.
On the same count and under the same terms, the result for `Nc1ccc(Oc2nc3ccc(Cl)cc3s2)cc1` [NZ-352, 4-[(6-chloro-1,3-benzothiazol-2-yl)oxy]aniline] reads 25 to 50 µM; that for `CNC(=O)Nc1ccc(Oc2nc3ccc(Cl)cc3s2)cc1` [NZ-353, 1-{4-[(6-chloro-1,3-benzothiazol-2-yl)oxy]phenyl}-3-methylurea], no less than 100 µM; that for `CN(C)C(=O)Nc1ccc(Oc2nc3ccc(Cl)cc3s2)cc1` [NZ-354, 1-{4-[(6-chloro-1,3-benzothiazol-2-yl)oxy]phenyl}-3,3-dimethylurea], 50 to 100 µM.
For the molecule `COC(=O)C(OC)c1ccc(Oc2nc3ccc(Cl)cc3s2)cc1` (centres unmarked) [NZ-355, methyl 2-{4-[(6-chloro-1,3-benzothiazol-2-yl)oxy]phenyl}-2-methoxyacetate], the “concentrations at which not toxic, S. cerevisiae cytotoxicity testing” value in series [1] was no less than 100 µM.
The same measure, in the same setting: the result for `COC(C(=O)O)c1ccc(Oc2nc3ccc(Cl)cc3s2)cc1` (centres unmarked) [NZ-356] reads no less than 100 µM; that for `CONC(=O)C(OC)c1ccc(Oc2nc3ccc(Cl)cc3s2)cc1` (centres unmarked) [NZ-357, 2-{4-[(6-chloro-1,3-benzothiazol-2-yl)oxy]phenyl}-N,2-dimethoxyacetamide], no less than 100 µM.
As for `Cc1ccc2nc(Oc3ccc(NC(=O)NC(C)C)cc3)sc2c1` [NZ-358, 1-{4-[(6-methyl-1,3-benzothiazol-2-yl)oxy]phenyl}-3-(propan-2-yl)urea], in series [1], the “concentrations at which not toxic, S. cerevisiae cytotoxicity testing” value was no less than 100 µM.
In the case of `CC(C)NC(=O)Nc1ccc(Oc2nc3ccc(Br)cc3s2)cc1` [NZ-359, 1-{4-[(6-bromo-1,3-benzothiazol-2-yl)oxy]phenyl}-3-(propan-2-yl)urea], in series [1], the “concentrations at which not toxic, S. cerevisiae cytotoxicity testing” value was no less than 100 µM.
Same read-out and setting: the same measure for `CC(C)NC(=O)Nc1ccc(Oc2nc3ccccc3s2)cc1` [NZ-360, 1-{4-(1,3-benzothiazol-2-yloxy)phenyl]-3-(propan-2-yl)urea]: no less than 100 µM.
As to `C[C@@H](Oc1ccc(Oc2nc3ccc(Cl)cc3o2)cc1)C(=O)O` [fenoxaprop-p, (R)-2-[4-(6-chlorobenzoxazol-2-yloxy)phenoxy]propionic acid, reference compound], the “concentrations at which not toxic, human fibroblast cytotoxicity testing” value in series [2] is no less than 100 µM.
Regarding `CCOC(=O)[C@@H](C)Oc1ccc(Oc2nc3ccc(Cl)cc3o2)cc1` [fenoxaprop-p-ethyl, ethyl (2R)-2-{4-[(6-chloro-1,3-benzoxazol-2-yl)oxy]phenoxy}propanoate, reference compound], the “concentrations at which not toxic, human fibroblast cytotoxicity testing” value in series [2] (human) was no less than 100 µM.
